Results taken from patent US20210198201A1, “Orally Active Melanocortin Receptor-4 Compounds” (Palatin Technologies, Inc., priority 2018, published 2021).

What was measured:
mMC1r = target: T1, mMC1r (Mus musculus, UniProt Q01727); assay: cAMP assay mMC1r (B16-F1 cells, NDP-α-MSH reference); format: cell-based
T1 construct: endogenous in cells; host or cells: B16-F1
Method: Melanocortin receptor binding and function of Compound 7.1 was tested. Ki binding values (nM) were calculated utilizing the percent inhibit of the binding of iodine-125 labeled NDP-α-MSH against B16-F1 cells for mMC1r, and human recombinant CHO cells for hMC3r, hMC4r and hMC5r, with the inhibition constant calculated using the Cheng Prusoff equation. Functional results (EC50 and efficacy) were calculated utilizing cAMP assays with NDP-α-MSH for mMC1r, hMC3r and hMC4r, ACTH for hMC2r, and α-MSH for hMC5r for agonist measures, with the same target cells for melanocortin receptors mMC1r, hMC3r, hMC4r and hMC5r, and human recombinant Cloudman M3 cells for hMC2r.

MC1r = target: T2, MC1r (Homo sapiens, UniProt Q01726); assay: Competitive inhibition binding assay, MC1r; conditions: binding studies
T2 construct: expressed in transfected cells; host or cells: HEK-293 (membrane homogenates)
T2 sequence (Q01726 whole entry): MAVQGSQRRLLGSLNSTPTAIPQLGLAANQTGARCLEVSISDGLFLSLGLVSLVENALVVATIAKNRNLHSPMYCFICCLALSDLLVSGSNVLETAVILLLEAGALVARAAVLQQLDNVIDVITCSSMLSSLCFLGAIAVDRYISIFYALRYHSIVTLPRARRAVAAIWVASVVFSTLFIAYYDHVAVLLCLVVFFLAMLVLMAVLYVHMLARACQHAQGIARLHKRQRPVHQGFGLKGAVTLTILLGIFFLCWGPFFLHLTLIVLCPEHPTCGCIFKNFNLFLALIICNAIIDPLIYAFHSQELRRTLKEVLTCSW
Method: A competitive inhibition binding assay is performed using membrane homogenates prepared from HEK-293 cells that express recombinant hMC1ra, hMC4r, hMC3r, or hMC5r, and from B16-F10 mouse melanoma cells (containing endogenous MC1r). In the examples that follow, all values are for human recombinant receptors unless otherwise noted. Assays are performed in 96 well GF/B Millipore multiscreen filtration plates (MAFB NOB10) pre-coated with 0.5% bovine serum albumin (Fraction V). […] After incubation for 60 to 90 minutes at 37° C., the assay mixture is filtered and the membranes washed three times with ice-cold buffer. Filters are dried and counted in a gamma counter for bound radioactivity.
Maximal specific binding (100%) is defined as the difference in radioactivity (cpm) bound to cell membranes in the absence and presence of 1 μM NDP-α-MSH. […] Each assay is conducted in duplicate or triplicate and the actual mean values are described, with results less than 0% reported as 0%. Ki values for test compounds are determined using Graph-Pad Prism® curve-fitting software.

C57BL/6 male DIO mice = assay: Body weight and food intake in vivo study in diet induced obese mice; set-up: species or system mouse
Method: Compound 7.1 was assessed in a body weight and food intake in vivo study in diet induced obese […] mice. C57BL/6 male DIO mice were utilized, that were 17 weeks of age on arrival. Animals were pre-conditioned on a high-fat diet for 11 weeks by Jackson Labs. […] Animals were single housed within a limited access rodent facility, and provided ad libitum with a commercial rodent diet and free access to drinking water. Animals were randomized into five groups, a vehicle group, three dose levels of compound 7.1 (3 mg/kg, 10 mg/kg and 30 mg/kg), and Peptide A, a positive control cyclic peptide of the formula Ac-Arg-cyclo(Orn-Asn-D-Phe-Arg-Trp-Glu)-NH2. Following three days of sham dosing, animals were dosed for three days, with vehicle or Compound 7.1 dosed orally once daily at within one hour of lights out in the AM, and Peptide A dosed by subcutaneous injection twice daily within one hour before lights out and six hours after lights out. Body weights were measured one hour prior to lights out, and feed weights were measured both one hour prior to lights out and six hours post lights out.
*p<0.05 vs. sham (vehicle control) using two-way ANOVA followed by Dunnett's post-test.
**p<0.01 vs sham (vehicle control) using two-way ANOVA followed by Dunnett's post-test.

MC4r = MC4r (Homo sapiens, UniProt P32245); assay: cAMP functional study in human MC4r expression system approximating maximal physiologic receptor densities; format: cell-based; set-up: host or cells: TREx-293; conditions: low receptor density human MC4r system
Sequence of MC4r (P32245 whole entry): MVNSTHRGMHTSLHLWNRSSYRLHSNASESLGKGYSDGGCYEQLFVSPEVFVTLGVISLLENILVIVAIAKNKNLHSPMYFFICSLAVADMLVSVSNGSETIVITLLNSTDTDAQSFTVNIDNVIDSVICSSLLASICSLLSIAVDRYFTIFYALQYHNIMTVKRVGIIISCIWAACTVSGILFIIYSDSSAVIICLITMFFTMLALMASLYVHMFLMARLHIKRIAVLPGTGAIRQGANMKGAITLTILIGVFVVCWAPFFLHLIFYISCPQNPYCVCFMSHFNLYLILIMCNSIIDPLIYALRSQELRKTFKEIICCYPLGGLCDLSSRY
Method: Assay for Agonist Activity. Accumulation of intracellular cAMP was examined as a measure of the ability of the peptides of the present invention to elicit a functional response in HEK-293 cells that express MC4-R. Confluent HEK-293 cells that express recombinant hMC4-R were detached from culture plates by incubation in enzyme-free cell dissociation buffer. Dispersed cells were suspended in Hanks' Balanced Salt Solution containing 10 mM HEPES (pH 7.5), 1 mM MgCl2, 1 mM glutamine, 0.5% albumin and 0.3 mM 3-isobutyl-1-methyl-xanthine (IBMX), a phosphodiesterase inhibitor. The cells were plated in 96-well plates at a density of 0.5×10^5 cells per well and pre-incubated for 10 minutes. Cells were exposed for 15 minutes at 37° C. to peptides of the present invention dissolved in DMSO (final DMSO concentration of 1%) at a concentration range of 0.05-5000 nM in a total assay volume of 200 μL. NDP-α-MSH was used as the reference agonist. cAMP levels were determined by an HTRF® cAMP cell-based assay system from Cisbio Bioassays utilizing cryptate-labeled anti-cAMP and d2-labeled cAMP, with plates read on a Perkin-Elmer Victor plate reader at […]. Data analysis was performed by nonlinear regression analysis with Graph-Pad Prism® software. The maximum efficacies of the test peptides of the present invention were compared to that achieved by the reference melanocortin agonist NDP-αMSH.
Low Receptor Density Systems. In functional studies preferably a human MC4r expression system approximating maximal human physiologic receptor densities is employed. In one aspect, a tetracycline-regulated mammalian expression system that uses regulatory elements from the E. coli Tn10-encoded tetracycline (Tet) resistance operon was employed (T-REx™ System, Invitrogen). By use of the T-REx™ System, expression of the gene of interest, the human MC4-R gene, was repressed in the absence of tetracycline or doxycycline and induced in the presence of tetracycline or doxycycline, with receptor density being dependent on the concentration of tetracycline or doxycycline. See generally Yao F. et al: Tetracycline repressor, tetR, rather than the tetR-mammalian cell transcription factor fusion derivatives, regulates inducible gene expression in mammalian cells. Hum. Gene Ther. 9:1939-1950 (1998), incorporated here by reference. Regulation was based on the binding of tetracycline or doxycycline, a derivative of tetracycline, to the Tet repressor and derepression of the promoter controlling expression of the human MC4-R gene. In general tetracycline or related regulators, such as tetracycline-derivatives, may be used to induce the gene expression. An inducible expression plasmid for expression of human MC4-R gene under the control of the strong human cytomegalovirus immediate-early (CMV) promoter and two tetracycline operator 2 (TetO2) sites was employed, together with a regulatory plasmid, pcDNA6/TR, which encodes the Tet repressor (TetR) under the control of the human SV40 promoter. Thus, expression of the human MC4-R gene from the inducible expression vector was controlled by the strong CMV promoter into which 2 copies of the tet operator 2 (TetO2) sequence had been inserted in tandem. The TetO2 sequences consisted of 2 copies of 19-nucleotide sequence separated by a 2 base pair spacer. Each 19 nucleotide TetO2 sequence served as the binding site for 2 molecules of the Tet repressor. The expression vector pcDNA4/TO/MC4R was introduced into TREx-293 (Invitrogen, R710-07), a cell line stably expressing the tetracycline repressor pcDNA6/TR using lipofectamin 2000 reagent (Invitrogen, 11668-019). Alternatively, both the expression vector and repressor are introduced into host cells by standard transformation or transfection methods.

T1 sequence (Q01727 whole entry): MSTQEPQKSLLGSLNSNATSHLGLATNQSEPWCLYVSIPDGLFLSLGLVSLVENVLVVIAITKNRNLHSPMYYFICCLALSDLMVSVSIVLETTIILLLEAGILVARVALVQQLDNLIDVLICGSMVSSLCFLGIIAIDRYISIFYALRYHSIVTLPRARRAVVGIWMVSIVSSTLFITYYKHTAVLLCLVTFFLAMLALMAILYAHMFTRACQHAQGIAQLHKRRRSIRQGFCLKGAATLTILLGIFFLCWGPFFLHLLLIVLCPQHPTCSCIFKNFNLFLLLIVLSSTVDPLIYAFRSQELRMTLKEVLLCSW

**Q.** With `CC(=O)N1CCC(N(CC(C)C)N2CCN(C(=O)[C@@H](Cc3ccc(Cl)cc3)NC(=O)C(C)(C)N)CC2)CC1` [Compound 7.1, N-[(1R)-2-[4-[(1-acetyl-4-piperidyl)-isobutyl-amino]piperazin-1-yl]-1-[(4-chlorophenyl)methyl]-2-oxo-ethyl]-2-amino-2-methyl-propanamide] as the molecule, how does the EC50 (mMC1r) read?
**A.** Its EC50 is 460 nM.

**Q.** What about the Ki (MC1r) of the same molecule?
**A.** Its Ki is 200 nM.

**Q.** And the “effect on body weight (in words)” value (C57BL/6 male DIO mice; 3 mg/kg, day 3)?
**A.** The value was “body weight loss”.

**Q.** And the “effect on feed intake at 24 hours post lights out (in words)” value (C57BL/6 male DIO mice; 30 mg/kg, entirety of the study, compared with sham animals)?
**A.** Its value is “significantly inhibited feed intake”.

**Q.** And the “effect on body weight (in words)” value (C57BL/6 male DIO mice; daily treatment at 10 mg/kg and 30 mg/kg, day 1 to 3)?
**A.** The value was “significant body weight loss”.

**Q.** And the EC50 (MC4r)?
**A.** The EC50 was 23 nM.

**Q.** What about the Emax (MC4r; read-out: relative efficacy, compared to NDP-α-MSH) of the same molecule?
**A.** The Emax was 33%.
